Measurements from PubChem BioAssay (NCI).
Several values for one entry are separate records, joined by “and”; a condition that tells them apart may be missing. Equal values may be shown once.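 Briefly, cells in 96-well plates were exposed to five compound concentrations for 48 h, and endpoints were estimated by linear interpolation. The concentration for 50% growth inhibition is given as GI50. Definition used: TGI = concentration required for complete inhibition of growth.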

Tests used:
Assay in all cases: inhibition of tumour cell growth, NCI panel, 48 h
786-0 renal = test system: 786-0 renal
A498 renal = test system: A498 renal
HS 578T breast = test system: HS 578T breast
M14 melanoma = test system: M14 melanoma
NCI/ADR-RES ovarian = test system: NCI/ADR-RES ovarian
OVCAR-8 ovarian = test system: OVCAR-8 ovarian
SF-295 CNS = test system: SF-295 CNS
SF-539 CNS = test system: SF-539 CNS
TK-10 renal = test system: TK-10 renal

Compound	TGI (786-0 renal) [µM]	TGI (A498 renal) [µM]	TGI (HS 578T breast) [µM]	TGI (M14 melanoma) [µM]	TGI (NCI/ADR-RES ovarian) [µM]	TGI (OVCAR-8 ovarian) [µM]	TGI (SF-295 CNS) [µM]	TGI (SF-539 CNS) [µM]	TGI (TK-10 renal)	GI50 (TK-10 renal) [µM]
Cc1sc2ccccc2[n+]1CCC(=O)O	> 100	> 100	> 100	> 100	> 100	> 100	> 100	> 100	> 100 µM	
CC1(C)Oc2ccc(NC(=O)CCC(N)C(=O)O)cc2O1 (configuration not stated)	> 100	> 100	> 100	> 100	> 100	> 100	> 100	> 100	> 100 µM	
COc1ccc(/C=C2\N=C(c3ccccc3)N(C3Nc4cc5c(cc4S3)NC(N3C(=O)/C(=C/c4ccc(OC)cc4)N=C3c3ccccc3)S5)C2=O)cc1 (configuration not stated)	> 100	> 100	> 100	> 100	48	> 100	> 100	29.2	> 100 µM	
COc1ccc2c(c1)/c(=C/c1ccc(N(C)C)cc1)c1cc(-c3ccccc3)[n+](C)n12	1.6	2.75	0.44	1.36	> 100	0.44			5.32 µM and 6.29 µM	0.711
Cc1c(-c2ccccc2)c(C#N)c2nnc(C(N)=O)c(N)n12	> 100	> 100	> 100	> 100	> 100	> 100	> 100	> 100	> 100 µM	
CC(=O)c1cc2c(s1)C(=O)c1ccccc1C2=O	> 71.3	> 66.8	> 67.6	10.8	6.17	5.98	8.99	8.32	42.3 µM	
CSc1c(C#N)c2n(c3ccccc13)c1ccccc1[n+]2C	> 100	60	> 100	> 100	68.4	59.3	> 100	78.8	93.6 µM	
CSc1cc(N)ccc1N=Nc1ccc(S(N)(=O)=O)cc1	76.8	> 100	73.9	> 100	91.2	53.6	56.6	93.7	72 µM	
COc1cc(S(=O)(=O)Nc2ccc(-c3csc(N4C(=O)CSC4c4ccccc4)n3)cc2)ccc1Cl (configuration not stated)	> 100	3.61	> 100	> 100	> 100	> 100	> 100	> 100		
CC1(COS(=O)(=O)OCC2(C)COS(=O)(=O)OC2)COS(=O)(=O)OC1	> 100	97.2	> 100	> 100	> 100	> 100	> 100	> 100	> 100 µM	
Cc1cc(C)n(CN(Cn2nc(C)cc2C)C2CCCCC2)n1	48.9	> 100	> 100	36.8	42.5	58.4	> 100	29.1	> 100 µM	
[N-]=[N+]=Nc1ccc(CNc2cc(=O)[nH]c(=O)[nH]2)cc1	> 100	> 100	> 100	> 100	> 100	> 100	> 100	> 100	> 100 µM	
CC(=O)O[C@H]1C(=O)[C@@]2(C)[C@H]([C@H](OC(=O)c3ccccc3)[C@]3(O)C[C@H](OC(=O)[C@H](O)[C@@H](NC(=O)CC(C)(C)C)c4ccccc4)C(C)=C1C3(C)C)C1(OC(C)=O)CO[C@@H]1C[C@@H]2O (some centres not stated)	> 10	> 10	0.00653	> 10	> 10	> 5.8		0.00453	> 10 µM	
Cn1nc(S(N)(=O)=O)s/c1=N/C(N)=S	> 100	> 100	> 100	> 100	> 100	> 100	> 100	> 100	> 100 µM	
COc1ccc2nc3cc(Cl)ccc3c(NCCNCCCNC(=O)c3cc(-c4ccccc4)nc4ccccc34)c2c1	> 100	> 100	> 100	> 100	> 100	> 100	> 100	> 100	> 100 µM	
C[n+]1c2ccccc2c(C(=O)Nc2ccc(S(=O)(=O)N=C(N)N)cc2)c2ccccc21	> 100	> 100	> 100	> 100	> 100	> 100	> 100	> 100	> 100 µM	
Cc1c(NC2(C)C(=O)N(/N=C/c3ccccc3)N=C2c2ccccc2)n[nH]c1-c1ccccc1 (configuration not stated)	> 100	> 100	> 100	> 100	> 100	> 100	> 100	> 100	> 100 µM	
COc1ccc(C2C(C#N)=C(S)N(C3OC(CO)C(O)C(O)C3O)C(c3ccccc3)=C2C(C)=O)cc1 (configuration not stated)	> 100	> 100	> 100	> 100	> 100	> 100	> 100	> 100	> 100 µM	
Cc1ccc(N=Nc2c(C)c(C#N)c(=S)n(C3OC(CO)C(O)C(O)C3O)c2-c2ccccc2)cc1 (configuration not stated)	49.8	33.2	60.4	30.4	> 100		69.5	48.9	67.6 µM	
COc1c(C)c(OC)c2c(c1O)[C@@H]1[C@@H]3Cc4c(OC)c(C)c(OC)c(O)c4[C@H](CNC(=O)c4cnc5ccccc5n4)N3[C@@H](C#N)[C@H](C2)N1C	> 0.1	0.00894	0.0192	0.00568	> 0.1	0.0212	> 0.0294	0.0104	0.0248 µM	
NC(N)=NS(=O)(=O)c1ccc(NC(=O)c2ccc3nc4ccccc4c(Nc4ccc(S(N)(=O)=O)cc4)c3c2)cc1	> 100	> 100	> 100	> 100	> 100	> 100	> 100	> 100	> 100 µM	
CCO/C(O)=C(/C(=N)N1CCCC1)C(=O)Nc1cccc(C(F)(F)F)c1	> 100	> 100	70.6	> 100	> 100	> 100	> 100	51.9	> 100 µM	
Cc1cc(=O)oc2cc(O)ccc12	> 100	> 100	> 100		> 100	> 100	> 100	> 100	> 100 µM	

Compound	TGI (786-0 renal) [µM]	TGI (A498 renal) [µM]	TGI (HS 578T breast) [µM]	TGI (M14 melanoma) [µM]	TGI (NCI/ADR-RES ovarian) [µM]	TGI (OVCAR-8 ovarian) [µM]	TGI (SF-295 CNS) [µM]	TGI (SF-539 CNS) [µM]	TGI (TK-10 renal)	GI50 (TK-10 renal) [µM]
c1ccc2c(Cc3nnc4sc(SSc5nn6c(Cc7c[nH]c8ccccc78)nnc6s5)nn34)c[nH]c2c1	47.6	44.2	56.8	37.2	44.4	73.1	44.1	50.8	> 100 µM	
Cc1ccc(-c2n[nH]c(=O)[nH]2)cc1[N+](=O)[O-]	> 100	> 100	> 100	> 100	> 100	> 100	> 100	> 100	> 100 µM	
COc1ccc(OC)c2c1C1CCC(=O)N1CN2C(C)=O (configuration not stated)	> 100	> 100	> 100	> 100	> 100	> 100	> 100	> 100	> 100 µM	
O=c1[nH]c2cc3[nH]c4ncccc4c(=O)c3cc2[nH]1	> 10	> 10	> 10	> 10	> 10	> 10	> 10	> 10	> 10 µM	
CCOC(=O)C(/C=N\C(=S)Nc1ccc(OCC)cc1)=C(/O)c1ccccc1	> 100	88.4	> 100	> 100	> 100	> 100	> 100	> 100		
O=C(NCCCNCCNC(=O)c1cc(-c2ccccc2)nc2ccccc12)c1cc(-c2ccccc2)nc2ccccc12	3.24	4.76	4.5	3.95	4.12	3.16	3.19	3.57	3.14 µM	
O=C(N[C@H]1c2ccsc2/C(=N/O)[C@H]1O)C(F)(F)F		> 100	> 100	> 100	> 100	> 100	> 100	> 100	> 100 µM	
O=C1c2cccc3cccc(c23)C(=O)N1CCCNOCCONCCCN1C(=O)c2cccc3cccc(c23)C1=O	> 100	> 100	> 100	> 100	> 100	> 100	> 100		> 100 µM	
CC(C)N(C)C(=O)C12C3C4C1C1C2C3C41C#N (configuration not stated)	> 100	> 100	> 100	> 100	> 100	> 100	> 100	> 100	> 100 µM	
C[N+](C)(C)c1ncnc2c1ncn2C1CCCCO1 (configuration not stated)	> 100	> 100	> 100	> 100	> 100	> 100	> 100		> 100 µM	
COC(=O)[C@@H]1C[C@@]2(C3C=CN(C(=O)C(F)(F)F)C=C3)c3ccccc3N(C(=O)C(F)(F)F)[C@H]2N1C(=O)OC	> 100	> 100	> 100	> 100	> 100	> 100	> 100	> 100	60.5 µM	
CSC1=NS(=O)(=O)c2cc(C(=O)NN(C)C(=O)c3cc4c(cc3Cl)SC(SC)=NS4(=O)=O)c(Cl)cc2S1	> 10	> 10	> 10	> 10	> 10	> 10	> 10	> 10	> 10 µM	
CC(=O)N1CCN(C23OC4(N5CCN(C(C)=O)CC5)C5C6CC(C7C6C4C72)C53)CC1 (configuration not stated)	> 100		> 100	> 100	> 100	> 100	> 100	> 100	> 100 µM	
C=C(C)C1CC=C(C)C2(C1)OCC(C)(C)C(C)O2 (configuration not stated)	33	28.9	> 100	47.1	37.5	31.7	48.2	48	> 100 µM	
Cc1c2c(OCCCCN3CCN(c4ncccn4)CC3)nn(C)c(=O)c2c(C)n1-c1ccccc1	34.7	30.6	67.8	35.9	46.2	61.3	32.4	32.6	33.5 µM	
CC(=O)c1cc2ccccc2n(O)c1=N	> 100	> 100	> 100	> 100	> 100	> 100	> 100	> 100	> 100 µM	
O=C1/C(=C2\Sc3c(ccc(Cl)c3Cl)C2=O)Sc2c1ccc(Cl)c2Cl	> 100	> 100	> 100	> 100	> 100	> 100	> 100	> 100	> 100 µM	
CCOc1cc(C2CC(c3ccc(NS(=O)(=O)c4cc([N+](=O)[O-])ccc4C)cc3)=NN2)ccc1O (configuration not stated)	67.8	70.7	> 100	43.8	71.3	> 100		> 100		
COc1cc(C2S/C(=C/c3ccccc3)C(=O)N2c2ccc(Cl)c(Cl)c2)cc(OC)c1OC (configuration not stated)	> 100	> 82.4	> 91.5	> 100	> 100	> 100	> 100		> 100 µM	
NNc1nncn1N	> 100	> 100	> 100	> 100	> 100	> 100	> 100	> 100	> 100 µM	
CC(C)OP(=O)(OC(C)C)C(C(C)C)N(C)/C(F)=N/C(F)(F)F (configuration not stated)	> 100	> 100	> 100	> 100	> 100	> 100	> 100	> 100	> 100 µM	
O=c1[nH]c(N/N=C\C(O)C(O)C(O)CO)nc2ccccc12 (configuration not stated)	> 100	> 100	> 100	> 100	> 100	> 100	> 100	> 100	> 100 µM	
